From patent US20260209220A1, “SUBSTITUTED TETRAHYDROPYRROLO-PYRIDINONE COMPOUNDS AND THEIR USE IN TREATING MEDICAL CONDITIONS” (Karuna Therapeutics, Inc., priority 2022, published 2026) come the findings set out here.

In assay [1] the target is T1, rM4 receptors (Rattus norvegicus, UniProt P08485).
T1 construct: expressed in transfected cells; host or cells: CHO cells
T1 sequence (P08485 1-478): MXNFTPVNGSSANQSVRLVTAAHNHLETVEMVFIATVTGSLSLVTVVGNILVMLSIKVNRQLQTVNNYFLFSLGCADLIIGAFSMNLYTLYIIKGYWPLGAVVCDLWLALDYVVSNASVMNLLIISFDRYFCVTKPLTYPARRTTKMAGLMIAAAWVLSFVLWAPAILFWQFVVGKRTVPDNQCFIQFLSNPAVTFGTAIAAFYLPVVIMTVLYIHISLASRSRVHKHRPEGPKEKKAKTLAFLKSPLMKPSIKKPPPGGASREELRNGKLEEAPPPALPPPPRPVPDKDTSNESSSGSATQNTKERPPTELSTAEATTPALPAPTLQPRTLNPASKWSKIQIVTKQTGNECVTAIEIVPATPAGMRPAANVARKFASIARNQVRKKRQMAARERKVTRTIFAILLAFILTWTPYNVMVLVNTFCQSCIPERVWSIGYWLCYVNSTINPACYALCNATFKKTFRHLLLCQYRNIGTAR
Kind of assay: Rat M4 PAM PERK assay (CHO cells, TR-FRET, with EC20 acetylcholine). The assay is classed as cell-based. Summed up: (§1)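 CHO cells expressing human or rat M4, serum-starved 4 h, then given compound (10-point, 10 μM top, ½-log) with EC20 acetylcholine (10 nM final) for 5 min at 37 °C. Lysates assayed for phospho-ERK by TR-FRET after 2 h detection at RT.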

The target of assay [2] is T2, hM4 receptors (Homo sapiens, UniProt P08173).
T2 construct: expressed in transfected cells; host or cells: CHO cells
T2 sequence (P08173 1-479): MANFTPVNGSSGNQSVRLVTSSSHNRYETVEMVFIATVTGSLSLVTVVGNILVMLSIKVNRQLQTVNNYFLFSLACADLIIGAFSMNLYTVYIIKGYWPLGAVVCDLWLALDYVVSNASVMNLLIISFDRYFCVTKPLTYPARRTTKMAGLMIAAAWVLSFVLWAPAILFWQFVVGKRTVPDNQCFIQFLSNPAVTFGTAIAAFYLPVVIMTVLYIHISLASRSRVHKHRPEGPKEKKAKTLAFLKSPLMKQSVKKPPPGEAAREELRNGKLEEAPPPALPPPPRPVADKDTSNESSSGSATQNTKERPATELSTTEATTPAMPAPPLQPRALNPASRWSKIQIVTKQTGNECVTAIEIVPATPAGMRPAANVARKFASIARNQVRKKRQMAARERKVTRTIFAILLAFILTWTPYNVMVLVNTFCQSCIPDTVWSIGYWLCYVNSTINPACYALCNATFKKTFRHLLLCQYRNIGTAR
The experiment in a line: Human M4 PAM PERK assay (CHO cells, TR-FRET, with EC20 acetylcholine). It is filed as cell-based. The method in brief:
as §1
Background: Time-resolved FRET reads energy transfer from a long-lived donor to a nearby acceptor.

For assay [3], the target named is T3, human M4 receptor (Homo sapiens, UniProt P08173).
T3 construct: expressed in transfected cells; host or cells: CHO-K1 cells (membranes)
T3 sequence (P08173 1-479): T2 sequence (P08173 1-479)
Kind of assay: M4 GTPγS PAM assay (CHO-K1 membranes, 35S-GTP binding, with EC20 acetylcholine). The assay is classed as biochemical. Particulars: with EC20 acetylcholine (40 nM). How it is done: The M4 GTPγS PAM method was used. Membranes were prepared for GTPgS binding assays from CHO-K1 cells stably expressing human M4 receptor. Briefly, cells were grown in 5-layer cell culture flasks. Cells were washed with 50 mL of PBS and then dissociated with 0.05% trypsin. Dissociated cells were then collected by centrifugation at 650×g for 8 minutes at 4° C. Pellets were washed again in PBS by centrifugation and resuspended in 30 mL of 20 mM HEPES, 10 mM EDTA, pH 7.4. After sitting on ice for 30 min, membranes were collected by centrifugation at 50000×g for 15′ at 4° C., resuspended in 30 mL of 20 mM HEPES, 0.1 mM EDTA, pH 7.4 and collected again by centrifugation. Pellets were then washed twice by centrifugation in 30 mL of 20 mM HEPES, pH 7.4, and stored at −80° C. until the day of the assay. On the day of the assay, pellets were thawed on ice and resuspended in 1 mL of 20 mM HEPES, pH 7.4, 10 mM MgCl2, 100 mM NaCl using dounce homogenization. Membrane protein concentration is determined by BCA protein assay (Promega, Madison, WI) according to Promega guidelines.
On the day of the assay, serial dilutions of test PAM compounds were brought up in assay buffer (20 mM HEPES, 10 mM MgCl2, 100 mM NaCl) at 4X final assay concentration. […] of membrane homogenates (containing […] of membrane protein) were prepared in assay buffer supplemented with GDP at […] final assay concentration (final assay concentration of GDP is 5 μM for M2 and 0.1 μM for M4) and dispensed into 96 well polypropylene, U-bottom Greiner plates. 25 ml of vehicle or test PAM compound at 4× of final assay concentration diluted in the assay buffer were added to membrane and plates are incubated for 10-15 minutes at room temperature with gentle shaking. Then, […] of EC20 acetylcholine in assay buffer at 4× final assay concentration was added to assay plates (EC20 final assay concentrations was 40 nM for human M4).
Plates were then incubated, with shaking, for an additional 10-15 minutes. […] of 0.4 nM 35S-GTP (Perkin Elmer, Waltham, MA) in assay buffer was added to assay mixtures. The binding reaction is left on the shaker for 1 hour at room temperature. Membranes in assay reactions were then transferred to GF/C filter plates (Unifilter, Perkin Elmer) and washed three times using a FilterMate Harvester (Perkin Elmer) with cold assay buffer containing no GDP. Filter plates were then dried at 40° C. overnight followed by the addition of […] of Beta Plate Scintillation liquid. Plates are top and bottom sealed before being read on TopCount scintillation counter (Perkin Elmer, Waltham, MA).

What is called EC50 is the concentration that produces a half-maximal response. In the case of `Cc1cc(=O)n(C)c2c1[C@@H](C)N(C(=O)CC1CN(c3ccc(C(F)(F)F)cc3)C1)C2` [Compound I-117, (R)-1,4,5-trimethyl-6-(2-(1-(4-(trifluoromethyl)phenyl)azetidin-3-yl)acetyl)-1,5,6,7-tetrahydro-2H-pyrrolo[3,4-b]pyridin-2-one], the figures for the EC50 in assay [1], in assay [2] and in assay [3] were 200 to 1000 nM, 200 to 1000 nM and under 50 nM, respectively.
With `Cc1cc(=O)n(C)c2c1CN(C(=O)CC1CN(c3cnc(C(F)(F)F)nc3)C1)C2` [Compound I-21], the EC50 was 50 to 200 nM in assay [1], 200 to 1000 nM in assay [2] and over 1000 nM in assay [3].
As for `Cc1c2c(n(C)c(=O)c1C)CN(C(=O)CC1CN(c3ccc(C(F)(F)F)cc3)C1)C2` [Compound I-43], the EC50 was 50 to 200 nM in assay [1], 50 to 200 nM in assay [2] and under 50 nM in assay [3].
As to `Cc1c2c(n(C)c(=O)c1C)CN(C(=O)CC1CN(c3ccc(F)c(OC4CC4)c3)C1)C2` [Compound I-63, 6-(2-(1-(3-cyclopropoxy-4-fluorophenyl)azetidin-3-yl)acetyl)-1,3,4-trimethyl-1,5,6,7-tetrahydro-2H-pyrrolo[3,4-b]pyridin-2-one], the EC50 was 200 to 1000 nM in assay [1], 200 to 1000 nM in assay [2] and under 50 nM in assay [3].
As to `Cc1cc(=O)n(C)c2c1CN(C(=O)CC1CN(c3cnnc(C(F)(F)F)c3)C1)C2` [Compound I-30], the EC50 was 50 to 200 nM in assay [1], 50 to 200 nM in assay [2] and 200 to 1000 nM in assay [3].
On to `Cc1cc(=O)n(C)c2c1CN(C(=O)CC1CN(c3ccc4c(c3)COC4)C1)C2` [Compound I-16], for which the EC50 in assay [1] fell in the range of 200 to 1000 nM; in assay [2], 50 to 200 nM; in assay [3], 200 to 1000 nM.
As to `Cc1cc(=O)n(C)c2c1CN(C(=O)CC1CN(c3ccc(F)c(C(F)(F)F)c3)C1)C2` [Compound I-20], the EC50 in assay [1] lay within 50 to 200 nM; in assay [2] it was 50 to 200 nM; in assay [3] it was 200 to 1000 nM.
For `Cc1cc(=O)n(C)c2c1CN(C(=O)CC1CN(c3cnn(C(F)(F)F)c3)C1)C2` [Compound I-34], the EC50 in assay [1], in assay [2] and in assay [3] was over 1000 nM in each case.
Take `COc1cc(N2CC(CC(=O)N3Cc4c(C)cc(=O)n(C)c4C3)C2)cc(C(F)(F)F)n1` [Compound I-39, 6-(2-(1-(2-Methoxy-6-(trifluoromethyl)pyridin-4-yl)azetidin-3-yl)acetyl)-1,4-dimethyl-1,5,6,7-tetrahydro-2H-pyrrolo[3,4-b]pyridin-2-one]: the EC50 in assay [1] fell in the range of 200 to 1000 nM; in assay [2], 50 to 200 nM; in assay [3], 200 to 1000 nM.
On to `Cc1cc(=O)n(C)c2c1[C@H](C)N(C(=O)CC1CN(c3ccc(C(F)(F)F)cc3)C1)C2` [Compound I-116, (S)-1,4,5-trimethyl-6-(2-(1-(4-(trifluoromethyl)phenyl)azetidin-3-yl)acetyl)-1,5,6,7-tetrahydro-2H-pyrrolo[3,4-b]pyridin-2-one], for which the EC50 in assay [1], in assay [2] and in assay [3] was over 1000 nM each time.
As for `Cc1c2c(n(C)c(=O)c1Cl)CN(C(=O)CC1CN(c3ccc(F)cc3)C1)C2` [Compound I-79], the EC50 in assay [1] was 50 to 200 nM; in assay [2] it was under 50 nM; in assay [3], under 50 nM.
Regarding `Cc1cc(=O)n(C)c2c1CN(C(=O)CC1CN(c3cc(F)cc(F)c3)C1)C2` [Compound I-36], the EC50 is 200 to 1000 nM in assay [1], under 50 nM in assay [2] and under 50 nM in assay [3].
Take `Cc1cc(=O)n(C)c2c1CN(C(=O)CC1CN(c3ncns3)C1)C2` [Compound I-18]: the EC50 is over 1000 nM in assay [1], 200 to 1000 nM in assay [2] and 200 to 1000 nM in assay [3].
On to `Cc1c2c(n(C)c(=O)c1C)CN(C(=O)CC1CN(c3ccc(C4CC4)c(F)c3)C1C)C2` (single isomer, unassigned) [Compound I-61], for which the EC50 in assay [1], in assay [2] and in assay [3] was under 50 nM throughout.
Take `Cc1c2c(n(CC(F)(F)F)c(=O)c1Cl)CN(C(=O)CC1CN(c3ccncn3)C1)C2` [Compound I-95]: the figures for the EC50 in assay [1], in assay [2] and in assay [3] were over 1000 nM, 50 to 200 nM and 50 to 200 nM, respectively.
As to `Cc1cc(=O)n(CC2CC2)c2c1CN(C(=O)CC1CN(c3ccc(C(F)(F)F)cc3)C1)C2` [Compound I-102], the EC50 fell in the range of 200 to 1000 nM in assay [1], 200 to 1000 nM in assay [2] and 50 to 200 nM in assay [3].
Take `Cc1c2c(n(C)c(=O)c1C)CN(C(=O)CC1CN(c3ccc(F)c(C4CC4)c3)C1)C2` [Compound I-55]: the EC50 in assay [1] lay in the range of 50 to 200 nM; in assay [2] it was 200 to 1000 nM; in assay [3], 50 to 200 nM.
Regarding `Cc1c2c(n(C)c(=O)c1Cl)CN(C(=O)CC1CN(c3ncns3)C1)C2` [Compound I-80], the EC50 in assay [1] is 200 to 1000 nM; in assay [2], under 50 nM; in assay [3], 50 to 200 nM.
In the case of `Cc1c2c(n(C)c(=O)c1C)CN(C(=O)CC1CN(c3ncns3)C1)C2` [Compound I-44], the EC50 in assay [1] is 200 to 1000 nM; in assay [2] it was under 50 nM; in assay [3], 50 to 200 nM.
As for `Cn1c2c(c(C(F)(F)F)cc1=O)CN(C(=O)CC1CN(c3cccnc3)C1)C2` [Compound I-91, 1-Methyl-6-(2-(1-(pyridin-3-yl)azetidin-3-yl)acetyl)-4-(trifluoromethyl)-1,5,6,7-tetrahydro-2H-pyrrolo[3,4-b]pyridin-2-one], the values for the EC50 in assay [1], in assay [2] and in assay [3] were 200 to 1000 nM, 200 to 1000 nM and over 1000 nM, respectively.
With `Cc1cc(=O)n(C)c2c1CN(C(=O)CC1CN(c3nc(C4CC4)ns3)C1)C2` [Compound I-35], the 50% effective concentration (EC50) in assay [1], in assay [2] and in assay [3] was 50 to 200 nM each time.
`Cc1cc(=O)n(C)c2c1CN(C(=O)CC1CN(c3nc(C(F)(F)F)cs3)C1)C2` [Compound I-31]: the EC50 in assay [1] was 50 to 200 nM; in assay [2], 50 to 200 nM; in assay [3] it was 200 to 1000 nM.
As for `Cc1cc(=O)n(C)c2c1CN(C(=O)CC1CN(c3cccnc3)C1)C2` [Compound I-3], the EC50 is 200 to 1000 nM in assay [1], 50 to 200 nM in assay [2] and under 50 nM in assay [3].
On the same counts, the results for `Cc1c2c(n(C)c(=O)c1C)CN(C(=O)CC1CN(c3nc(C4CC4)c(C(F)(F)F)s3)C1)C2` [Compound I-65, 6-(2-(1-(4-cyclopropyl-5-(trifluoromethyl)thiazol-2-yl)azetidin-3-yl)acetyl)-1,3,4-trimethyl-1,5,6,7-tetrahydro-2H-pyrrolo[3,4-b]pyridin-2-one] are 200 to 1000 nM, 200 to 1000 nM and under 50 nM.
